Tests used:
[1] = test system: anti-SRBC specific antibodies production by B lymphocytes; format: in vivo, mouse; conditions: Table 12, positive control given i.p., ICR mice, dosage 4 mg/kg
[2] = test system: DNFB-induced mouse DTH response; assay: DNFB-induced mouse delayed type hypersensitivity response (DTH); format: in vivo; conditions: Table 8, i.p., Balb/c mice, dosage 1000 (mg/kg)
Experimental: Female Balb/c mice (age of 6-8 wk) were randomly divided into groups and immunized with 20 μl 0.5% DNFB solution in absolute acetone-olive oil (4:1) on each hind foot on day 0 and 1;
7-9 days after the initial immunization, mice were boosted with 10 μl 0.4% DNFB on both sides of the left ear, whereas the right ear was treated with vehicle alone;
Compounds were administered intraperitoneally (i.p.) or orally (p.o.) to the mice 1 h before DNFB booster immunization and 12 h later.
Ear swelling and other indexes were assessed 24-48 h after booster immunization.
Note: Female ICR mice (age of 6-8 wk) were immunized with 0.7% DNFB solution and boosted with 0.6% DNFB solution.

[3] = test system: lymphocyte; assay: MTT cytotoxic assay; format: cell-based, mouse; conditions: control 0.337
Experimental: Mice were sacrificed by cervical dislocation, and spleens were collected under sterile conditions then teased through a nylon mesh. Erythrocytes were lysed. Cells were washed and resuspended at 5×10^6/ml in RPMI-1640 media supplemented with 10% FBS.
For one 96 well plate assay, 90 μl of cells, 45 μl of sample and 45 μl of RPMI-1640 media with 10% FBS were added into each well with the final volume 180 μl. The negative control wells (containing 90 μl of RPMI-1640 media with 10% FBS and 90 pt of cells), blank control (180 μl of RPMI-1640 media with 10% FBS) were also performed. Incubate plate for 48 hours at 37° C., 5% CO2 in a humidified incubator. 18 μl of MTT solution (5 mg/ml) was added for 6-7 h.
90 μl of MTT lysis solution was added to each well followed by a further incubation at 37° C. for 6-7 h. And the absorbance was measured at 570 nm using a plate reader.

[4] = test system: B lymphocyte; assay: LPS induced B-lymphocyte proliferation ([3H]thymidine); format: cell-based, mouse; conditions: control 87373
Experimental: (§1) Mice were sacrificed by cervical dislocation, and spleens were collected under sterile conditions then teased through a nylon mesh. Erythrocytes were lysed. Cells were washed and resuspended at 5×10^6/ml in RPMI-1640 media containing 10% FBS. For one 96 well plate assay, 100 pt of cells, 50 μl of sample and 50 μl of ConA/LPS were added into each well with the final volume 200 μl. The control wells were set up with 50 μl of RPMI-1640 media instead of ConA/LPS.
(§2) Plates were incubated for 48 h (ConA) or 60 h (LPS), respectively, at 37° C., 5% CO2 in a humidified incubator. In the last 8 h of incubation, 25 μl (1.9×10^10 Bq) of [^3H]thymidine was added. After plates were incubated for 48 h, the plates (ConA) were stored at −20° C., then after another 12 h, the plates (LPS) were stored at −20° C.
(§3) At the end of incubation, pulsed cells were harvested on a glass filter using a cell harvester ([…]96®, TOMTEC) and allowed to dry. Incorporation of radioactive thymidine was determined by using liquid Scintillation and Luminescence Counters (MicroBeta Trilux®, PerkinElmer).

[5] = test system: T lymphocyte; assay: ConA induced T-lymphocyte proliferation ([3H]thymidine); format: cell-based, mouse; conditions: control 125789
Experimental: as §1, §2, §3

Compound | Cytotoxicity OD Value ([3]; 10^−6 M) | Cytotoxicity OD Value ([3]; 10^−7 M) | Cytotoxicity OD Value ([3]; 10^−8 M) | Lymphocyte Proliferation (cpm) B cell ([4]; 10^−6 M) [cpm] | Lymphocyte Proliferation (cpm) B cell ([4]; 10^−7 M) [cpm] | Lymphocyte Proliferation (cpm) B cell ([4]; 10^−8 M) [cpm] | melting point | Lymphocyte Proliferation (cpm) T cell ([5]; 10^−6 M) [cpm] | Lymphocyte Proliferation (cpm) T cell ([5]; 10^−7 M) [cpm] | Lymphocyte Proliferation (cpm) T cell ([5]; 10^−8 M) [cpm] | also measured
O=P1(N(CCCl)CCCl)NCCCO1 (stereo not drawn) [CTX, reference compound] | – | – | – | – | – | – | – | – | – | – | QHS OD value ([1]; control 0.38): 0.12; C3 ([1]; control 7.9): 7.5 μg/10 μl; Body weight ([1]; control 23.4): 22.6 g; Thymus ([1]; control 28.8): 28.2 mg; Spleen ([1]; control 55.7): 50.7 mg/10 g; Total IgG ([1]; control 117): 101 μg/10 μl; Body weight after i.p. ([2]; control 21.9): 21.1 g; Body weight before i.p. ([2]; control 22.4): 22.1 g; Ear swelling X ± SD ([2]; control 22.7 ± 2.1): 15.6 ± 8.1 mg; Right ear ([2]; control 26.4): 30.3 mg; Left ear ([2]; control 49.1): 45.9 mg; Spleen ([2]; control 154.0): 141.2 mg
CC(C)[C@]12O[C@H]1[C@@H]1O[C@@]13[C@@]1(C)CCC4=C(COC4=O)C1=C[C@@H]1O[C@@]13C2=O [LLDT-15, Δ^5,6-dehydrotriptonide] | 0.156 | 0.316 | 0.327 | 30889 | 85240 | 77139 | 242 to 244 °C (dec.) | 10296 | 63914 | 69613 | –
CC(C)[C@]12O[C@H]1[C@@H]1O[C@@]13[C@@]1(C)CCC4=C(COC4=O)[C@@]14O[C@H]4[C@@H]1O[C@@]13C2=O [LLDT-16, (5R, 6S)-5,6-epoxytriptonide] | 0.304 | 0.337 | 0.372 | 80768 | 82285 | 71877 | 252 to 254 °C (dec.) | 76204 | 75599 | 89029 | –
CC(C)[C@]12O[C@H]1[C@@H]1O[C@@]13[C@@]1(C)CCC4=C(COC4=O)[C@]1(O)[C@@H](O)[C@@H]1O[C@@]13C2=O [LLDT-17, cis-(5R, 6S)-5,6-dihydroxytriptonide] | 0.310 | 0.355 | 0.334 | 82861 | 76376 | 73969 | 266 to 268 °C (dec.) | 84825 | 67561 | 74069 | –
CC(C)C12OC1C1OC13C1(C)CCC4=C(COC4=O)C1=CC1OC13C2O (stereo not drawn) [LLDT-18, Δ^5,6-dehydrotriptolide] | 0.039 | 0.295 | 0.367 | 833 | 75147 | 79808 | – | 462 | 53513 | 92807 | –
CC(C)[C@]12O[C@H]1[C@@H]1O[C@]13[C@]1(O[C@H]1C=C1C4=C(CC[C@@]13C)C(=O)OC4)[C@H]2O [LLDT-19, Δ^5,6-dehydro-14-epitriptolide] | 0.340 | 0.340 | 0.346 | 82989 | 70587 | 69690 | – | 79418 | 71177 | 76183 | –
CC(C)C12OC1C1OC13C1(OC1C1OC14C1=C(CCC43C)C(=O)OC1)C2O [LLDT-20, (5R, 6S)-5,6-epoxytriptolide] | 0.263 | 0.350 | 0.374 | 63169 | 85145 | 78259 | – | 25344 | 54771 | 69785 | –
CC(C)[C@]12O[C@H]1[C@@H]1O[C@]13[C@]1(O[C@H]1[C@@H]1O[C@@]14C1=C(CC[C@]34C)C(=O)OC1)[C@H]2O [LLDT-21, (5R, 6S)-5,6-epoxy-14-epitriptolide] | 0.361 | 0.332 | 0.359 | 86610 | 75766 | 76181 | – | 97217 | 73513 | 83465 | –
CC(C)C12OC1C1OC13C1(OC1C(O)C1(O)C4=C(CCC13C)C(=O)OC4)C2O [LLDT-22, cis-(5R, 6S)-5,6-dihydroxytriptolide] | 0.157 | 0.345 | 0.374 | 16807 | 89706 | 84748 | – | 2662 | 68787 | 64367 | –
CC(C)C12OC1C1OC13C1(OC1C(O)C1(O)C4=C(CCC13C)C(=O)OC4)C2O [LLDT-23, cis-(5R, 6S)-5,6-dihydroxy-14-epitriptolide] | 0.302 | 0.349 | 0.366 | 99672 | 86481 | 76993 | – | 55614 | 104791 | 84713 | –
